Values after ≈ are worked out from the molar mass of the structure shown. *1 amine or outer side, *2 acyl side, *3 side chain or, on linkers, in order; H or OH if unused. Where a SMILES comes first, the peptide text is derived from it. Where no end group is shown, it is not given here. [ ]: non-standard residue; d: D form. X1 = O=C(c1cccc(N=Nc2ccc(CN[*:1])cc2)c1)[*:2]
Tests used:
[1] = Maximal solubility in buffered solution; assay type: physicochemical; conditions: phosphate buffer, aqueous buffer; maximal solubility from solid (0.5 mg portions into 1 mL until precipitate); 50 mM aqueous Na2HPO4 pH 7.4; centrifuged 10 000 rpm 1 h 4 °C; supernatant by UV/vis absorbance
Method: UV/vis-absorbance spectroscopy was measured on a JASCO V-660 absorbance spectrometer in a 1 cm quartz glass cuvette. For PTH25–37, the absorbance was measured at 205 nm with a molar extinction coefficient of 49.310 cm^–1 M^–1; trans-azobenzene containing peptides were measured at 327 nm with a molar extinction coefficient of 13.000 cm^–1 M^–1. CD spectroscopy was measured with a JASCO J-1500 CD Spectrometer in either a 1 mm. As buffered solution, a 50 mM aqueous Na2HPO4 buffer solution was used with a pH value adjusted to 7.4. Transmission was measured with a Litesizer DLS 500 from Anton Paar using a 3 mm × 3 mm quartz glass cuvette. The irradiation wavelength was 658 nm. The equilibration time was 1 min, and the measurement time was 10 s. The temperature was maintained at 25 °C.
To determine the maximal solubility of a peptide, small amounts (0.5 mg) of the respective peptide were added to 1 mL of buffered solution and shacked for 10 s until an insoluble precipitate was visible. The suspensions were centrifuged at 10 000 rpm for 1 h at 4 °C, and the supernatant was transferred to another tube. The remaining monomer concentration was determined using UV/vis-absorbance spectroscopy. To determine the critical concentration ccr, two samples were prepared for each peptide according to the procedure for the ThT monitored fibrillization assay, one with ThT as a reference sample and the other one without ThT. Twenty hours after the reference sample reached the stationary phase, the fibril containing solutions from the sample without ThT were transferred to a tube and centrifuged at 10 000 rpm for 1 h at room temperature. The supernatant was transferred to another tube, and the concentration of the remaining monomers was determined using UV/vis-absorbance spectroscopy at 278 nm with a molar extinction coefficient of 3750 cm^–1 M^–1 for the azobenzene containing peptides and at 205 nm with a molar extinction coefficient of 49 310 cm^–1 M^–1 for PTH25–37.

3T3 cells = test: Resazurin reduction cell viability assay on 3T3 fibroblasts; assay type: cell-based, murine; conditions: trans-isomers, serial dilutions, 24 h or 96 h incubation, n = 8 per treatment, 3 independent experiments
Method: (§1) Cell viability was determined for trans-P4, trans-P8, and trans-P12 on NHDF as well as 3T3 fibroblasts with a resazurin reduction assay. Briefly, cells were seeded at desired cell densities in corresponding culture media supplemented with 10% FCS and penicillin/streptomycin in 96-well plates on day 0 and incubated overnight under standard cell culture conditions. On day 1, serial dilutions of the peptides in cell culture media were prepared. Then, medium (background and negative control–100% viability), TritonX in medium f.c. 0.025% (postive control–0% viability), and the peptide dilutions were added with one treatment per column (n = 8). Incubation for 24 h or 96 h under standard cell culture conditions followed. On day of measurement, resazurin stock solution was added to a final concentration of 44 μM into each well. After 2 h incubation, the resorufin fluorescence was measured with a Cytation 5 plate reader system. Means and standard deviation of each column were calculated. Experiments were repeated independently 3 times, and average values were evaluated (see Figure S12).
(§2) Figure S12: Cell viability assay of trans-P4, trans-P8, and trans-P12 on NHDF (human, adult, fibroblasts) and 3T3 (murine,
(§3) embryonal, fibroblasts) cells after 24 h (blue) and 96 h (orange). 100% cell viability corresponds to the value of the negative,
(§4) (1 picture or pasted object on this page, not shown here)

NHDF cells = test: Resazurin reduction cell viability assay on NHDF fibroblasts; assay type: cell-based, human; conditions: trans-isomers, serial dilutions, 24 h or 96 h incubation, n = 8 per treatment, 3 independent experiments
Method: as §1, §2, §3, §4

Compound: CC(C)C[C@H](NC(=O)[C@H](C)NC(=O)[C@@H](NC(=O)[C@H](Cc1ccccc1)NC(=O)[C@H](CC(N)=O)NC(=O)[C@H](Cc1c[nH]cn1)NC(=O)[C@@H](NC(=O)c1cccc(N=Nc2ccc(CNC(=O)[C@H](CC(=O)O)NC(=O)[C@H](CCC(N)=O)NC(=O)[C@H](CC(C)C)NC(=O)[C@H](CCCCN)NC(=O)[C@H](CCCCN)NC(=O)[C@@H](N)CCCNC(=N)N)cc2)c1)C(C)C)C(C)C)C(=O)O [P1] (H-RKKLQD[X1]VHNFVAL-OH)
- solubility thermodynamic at 10 s [1]: 90 µM (≈ 162 µg/mL)

Compound: CC(C)C[C@H](NC(=O)[C@H](C)NC(=O)[C@@H](NC(=O)[C@H](Cc1ccccc1)NC(=O)[C@H](CC(N)=O)NC(=O)[C@H](Cc1c[nH]cn1)NC(=O)c1cccc(N=Nc2ccc(CNC(=O)[C@@H](NC(=O)[C@H](CC(=O)O)NC(=O)[C@H](CCC(N)=O)NC(=O)[C@H](CC(C)C)NC(=O)[C@H](CCCCN)NC(=O)[C@H](CCCCN)NC(=O)[C@@H](N)CCCNC(=N)N)C(C)C)cc2)c1)C(C)C)C(=O)O [P2] (H-RKKLQDV[X1]HNFVAL-OH)
- solubility thermodynamic at 10 s [1]: 60 µM (≈ 108 µg/mL)

Compound: CC(C)C[C@H](NC(=O)[C@H](C)NC(=O)[C@@H](NC(=O)[C@H](Cc1ccccc1)NC(=O)[C@H](CC(N)=O)NC(=O)[C@H](Cc1c[nH]cn1)NC(=O)[C@@H](NC(=O)c1cccc(N=Nc2ccc(CNC(=O)[C@H](CCC(N)=O)NC(=O)[C@H](CC(C)C)NC(=O)[C@H](CCCCN)NC(=O)[C@H](CCCCN)NC(=O)[C@@H](N)CCCNC(=N)N)cc2)c1)C(C)C)C(C)C)C(=O)O [P3] (H-RKKLQ[X1]VHNFVAL-OH)
- solubility thermodynamic at 10 s [1]: 35 µM (≈ 59.2 µg/mL)

Compound: CC(C)C[C@H](NC(=O)[C@H](C)NC(=O)[C@@H](NC(=O)[C@H](Cc1ccccc1)NC(=O)[C@H](CC(N)=O)NC(=O)[C@H](Cc1c[nH]cn1)NC(=O)c1cccc(N=Nc2ccc(CNC(=O)[C@H](CC(=O)O)NC(=O)[C@H](CCC(N)=O)NC(=O)[C@H](CC(C)C)NC(=O)[C@H](CCCCN)NC(=O)[C@H](CCCCN)NC(=O)[C@@H](N)CCCNC(=N)N)cc2)c1)C(C)C)C(=O)O [P4] (H-RKKLQD[X1]HNFVAL-OH)
- solubility thermodynamic at 10 s [1]: 370 µM (≈ 631 µg/mL)
- toxicity toward 3T3 cells (3T3 cells): did not observe any toxicity
- toxicity toward NHDF cells (NHDF cells): did not observe any toxicity

Compound: CC(C)C[C@H](NC(=O)[C@H](C)NC(=O)[C@@H](NC(=O)[C@H](Cc1ccccc1)NC(=O)[C@H](CC(N)=O)NC(=O)[C@H](Cc1c[nH]cn1)NC(=O)c1cccc(N=Nc2ccc(CNC(=O)[C@H](CCC(N)=O)NC(=O)[C@H](CC(C)C)NC(=O)[C@H](CCCCN)NC(=O)[C@H](CCCCN)NC(=O)[C@@H](N)CCCNC(=N)N)cc2)c1)C(C)C)C(=O)O [P5] (H-RKKLQ[X1]HNFVAL-OH)
- solubility thermodynamic at 10 s [1]: 25 µM (≈ 39.8 µg/mL)

Compound: CC(C)C[C@H](NC(=O)[C@H](C)NC(=O)[C@@H](NC(=O)[C@H](Cc1ccccc1)NC(=O)[C@H](CC(N)=O)NC(=O)[C@H](Cc1c[nH]cn1)NC(=O)[C@@H](NC(=O)[C@H](CC(=O)O)NC(=O)c1cccc(N=Nc2ccc(CNC(=O)[C@H](CCC(N)=O)NC(=O)[C@H](CC(C)C)NC(=O)[C@H](CCCCN)NC(=O)[C@H](CCCCN)NC(=O)[C@@H](N)CCCNC(=N)N)cc2)c1)C(C)C)C(C)C)C(=O)O [P6] (H-RKKLQ[X1]DVHNFVAL-OH)
- solubility thermodynamic at 10 s [1]: 20 µM (≈ 36.1 µg/mL)

Compound: CC(C)C[C@H](NC(=O)[C@H](C)NC(=O)[C@@H](NC(=O)[C@H](Cc1ccccc1)NC(=O)[C@H](CC(N)=O)NC(=O)[C@H](Cc1c[nH]cn1)NC(=O)[C@@H](NC(=O)[C@H](CC(=O)O)NC(=O)[C@H](CCC(N)=O)NC(=O)c1cccc(N=Nc2ccc(CNC(=O)[C@H](CC(C)C)NC(=O)[C@H](CCCCN)NC(=O)[C@H](CCCCN)NC(=O)[C@@H](N)CCCNC(=N)N)cc2)c1)C(C)C)C(C)C)C(=O)O [P7] (H-RKKL[X1]QDVHNFVAL-OH)
- solubility thermodynamic at 10 s [1]: 140 µM (≈ 253 µg/mL)

Compound: CC(C)C[C@H](NC(=O)[C@H](C)NC(=O)[C@@H](NC(=O)[C@H](Cc1ccccc1)NC(=O)[C@H](CC(N)=O)NC(=O)[C@H](Cc1c[nH]cn1)NC(=O)[C@@H](NC(=O)[C@H](CC(=O)O)NC(=O)[C@H](CCC(N)=O)NC(=O)[C@H](CC(C)C)NC(=O)[C@H](CCCCN)NC(=O)c1cccc(N=Nc2ccc(CNC(=O)[C@H](CCCCN)NC(=O)[C@@H](N)CCCNC(=N)N)cc2)c1)C(C)C)C(C)C)C(=O)O [P8] (H-RK[X1]KLQDVHNFVAL-OH)
- solubility thermodynamic at 10 s [1]: 200 µM (≈ 361 µg/mL)
- toxicity toward 3T3 cells (3T3 cells): did not observe any toxicity
- toxicity toward NHDF cells (NHDF cells): did not observe any toxicity

Compound: CC(C)C[C@H](NC(=O)[C@H](C)NC(=O)[C@@H](NC(=O)[C@H](Cc1ccccc1)NC(=O)[C@H](CC(N)=O)NC(=O)[C@H](Cc1c[nH]cn1)NC(=O)[C@@H](NC(=O)[C@H](CC(=O)O)NC(=O)[C@H](CCC(N)=O)NC(=O)[C@H](CC(C)C)NC(=O)[C@H](CCCCN)NC(=O)c1cccc(N=Nc2ccc(CNC(=O)[C@@H](N)CCCNC(=N)N)cc2)c1)C(C)C)C(C)C)C(=O)O [P9] (H-R[X1]KLQDVHNFVAL-OH)
- solubility thermodynamic at 10 s [1]: 130 µM (≈ 218 µg/mL)

Compound: CC(C)C[C@H](NC(=O)[C@H](C)NC(=O)[C@@H](NC(=O)[C@H](Cc1ccccc1)NC(=O)c1cccc(N=Nc2ccc(CNC(=O)[C@H](CC(N)=O)NC(=O)[C@H](Cc3c[nH]cn3)NC(=O)[C@@H](NC(=O)[C@H](CC(=O)O)NC(=O)[C@H](CCC(N)=O)NC(=O)[C@H](CC(C)C)NC(=O)[C@H](CCCCN)NC(=O)[C@H](CCCCN)NC(=O)[C@@H](N)CCCNC(=N)N)C(C)C)cc2)c1)C(C)C)C(=O)O [P10] (H-RKKLQDVHN[X1]FVAL-OH)
- solubility thermodynamic at 10 s [1]: 7 µM (≈ 12.6 µg/mL)

Compound: CC(C)C[C@H](NC(=O)[C@H](C)NC(=O)c1cccc(N=Nc2ccc(CNC(=O)[C@@H](NC(=O)[C@H](Cc3ccccc3)NC(=O)[C@H](CC(N)=O)NC(=O)[C@H](Cc3c[nH]cn3)NC(=O)[C@@H](NC(=O)[C@H](CC(=O)O)NC(=O)[C@H](CCC(N)=O)NC(=O)[C@H](CC(C)C)NC(=O)[C@H](CCCCN)NC(=O)[C@H](CCCCN)NC(=O)[C@@H](N)CCCNC(=N)N)C(C)C)C(C)C)cc2)c1)C(=O)O [P11] (H-RKKLQDVHNFV[X1]AL-OH)
- solubility thermodynamic at 10 s [1]: 20 µM (≈ 36.1 µg/mL)

Compound: CC(C)C[C@H](NC(=O)[C@H](C)NC(=O)c1cccc(N=Nc2ccc(CNC(=O)[C@H](Cc3ccccc3)NC(=O)[C@H](CC(N)=O)NC(=O)[C@H](Cc3c[nH]cn3)NC(=O)[C@@H](NC(=O)[C@H](CC(=O)O)NC(=O)[C@H](CCC(N)=O)NC(=O)[C@H](CC(C)C)NC(=O)[C@H](CCCCN)NC(=O)[C@H](CCCCN)NC(=O)[C@@H](N)CCCNC(=N)N)C(C)C)cc2)c1)C(=O)O [P12] (H-RKKLQDVHNF[X1]AL-OH)
- solubility thermodynamic at 10 s [1]: 135 µM (≈ 230 µg/mL)
- toxicity toward 3T3 cells (3T3 cells): did not observe any toxicity
- toxicity toward NHDF cells (NHDF cells): did not observe any toxicity

Compound: RKKLQDVHNFVAL [PTH25–37, reference compound]
- solubility thermodynamic at 10 s [1]: > 500 µM
